The source of these data is ChEMBL document CHEMBL6096706, “Discovery of WDR5-MLL1 and HDAC Dual-Target Inhibitors for the Treatment of Acute Myeloid Leukemia” (J Med Chem, 2025).

In assay [1] the test system is MV4-11. Nature of the assay: Antiproliferative activity against human MV4-11 cells assessed as growth inhibition at 0.1 uM measured after 72 hrs in presence of 0.1 uM of vorinostat by CellTiterGlo assay. The following applies: read-out: GI. Format: functional.
Assay [2] relates to MV4-11. Nature of the assay: Antiproliferative activity against human MV4-11 cells assessed as growth inhibition at 1 uM measured after 72 hrs by CellTiterGlo assay. The format is functional. The conditions noted are these: read-out: GI. On the technique in general: ATP-based viability assays read luminescence as a measure of living cells.
Assay [3] relates to MV4-11. Nature of the assay: Antiproliferative activity against human MV4-11 cells assessed as growth inhibition at 0.5 uM measured after 72 hrs in presence of 0.2 uM of vorinostat by CellTiterGlo assay. The format is functional. The conditions noted are these: read-out: GI.
The subject of assay [4] is MV4-11. Description: Antiproliferative activity against human MV4-11 cells assessed as growth inhibition at 0.1 uM measured after 72 hrs in presence of 0.4 uM of vorinostat by CellTiterGlo assay. The format is functional. The following applies: read-out: GI.
Assay [5] relates to MV4-11. Nature of the assay: Antiproliferative activity against human MV4-11 cells assessed as growth inhibition at 0.5 uM measured after 72 hrs by CellTiterGlo assay. The following applies: read-out: GI. The format is functional.
Assay [6] deals with MV4-11. Description: Antitumor activity against human MV4-11 cells xenografted in mouse assessed as tumor growth inhibition at 30 mg/kg, ip administered daily for 17 days. Format: functional. The conditions noted are these: MV4-11, 408 h, time 17 day, read-out: TGI. (In general: Xenograft models place foreign cells or tissue in a host animal.)
In assay [7] the target is T1, Histone deacetylase 11 (Homo sapiens, UniProt Q96DB2).
T1 sequence (Q96DB2 whole entry): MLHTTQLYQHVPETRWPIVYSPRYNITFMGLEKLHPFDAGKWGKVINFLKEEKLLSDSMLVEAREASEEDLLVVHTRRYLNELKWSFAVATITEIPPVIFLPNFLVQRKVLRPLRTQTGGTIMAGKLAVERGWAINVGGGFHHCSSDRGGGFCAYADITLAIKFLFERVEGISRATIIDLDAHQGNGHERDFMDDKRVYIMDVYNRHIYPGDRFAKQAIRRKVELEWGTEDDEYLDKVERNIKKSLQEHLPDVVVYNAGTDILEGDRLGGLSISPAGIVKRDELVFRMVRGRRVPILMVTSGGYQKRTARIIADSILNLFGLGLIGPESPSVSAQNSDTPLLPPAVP
Nature of the assay: Inhibition of HDAC11 (unknown origin) by fluorescence based assay.

For assay [8], the system named is MV4-11. Nature of the assay: Antitumor activity against human MV4-11 cells xenografted in mouse assessed as tumor growth inhibition at 10 mg/kg, ip administered daily for 17 days. The format is functional. The conditions noted are these: MV4-11, 408 h, time 17 day, read-out: TGI.
Assay [9] relates to MV4-11. Description: Induction of apoptosis in human MV4-11 cells assessed as viable cells at 50 nmol/L incubated for 72 hrs by Annexin V/PI staining based flow cytometry analysis (reference value: 90.23%). Format: functional. The following applies: read-out: Activity. For orientation: A flow cytometer gives signals particle by particle.

With `Cc1c(F)c(N)cc(C(=O)Nc2cc(-c3ccc(C(=O)N4CCOCC4)cc3)ccc2N2CCN(C)CC2)c1Cl`, the inhibition of growth at 0.1 µM in [1] came out at 42.8%; in [4], 59%. Besides, in [2], the inhibition of growth at 1 µM came out at 40.7%. In addition, the inhibition of growth at 0.5 µM in assay [3] was 58.9%; in assay [5] it was 27.5%.

On to `Cc1c(F)c(N)cc(C(=O)Nc2cc(-c3ccc(C(=O)NCc4ccc(/C=C/C(=O)NO)cc4)cc3)ccc2N2CCN(C)CC2)c1Cl`, for which, in [6], the inhibition in vivo at 30 mg/kg worked out at 87.1%. In [7], the IC50 (commonly the concentration at which inhibition is half-maximal) was greater than 10 µM. The inhibition in vivo at 10 mg/kg in assay [8] came to 42.3%. In addition, the viability at 0.05 µM in [9] was 75.7%.
